In experiment [1] the target is Recombinant human c-Cbl (aa 47-435) (Homo sapiens (Human), UniProt P22681). Description: c-Cbl Biochemical Assay (TR-FRET). In a few lines:
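TR-FRET binding of UBE2D2-Ub-Bodipy (100 nM) to biotinylated c-Cbl (aa 47-435, 6 nM) via Streptavidin-Tb, measured after c-Cbl activation by Src-Zap70 with 0.5 mM ATP (60-90 min RT, 30 min compound preincubation). Ten-point half-log dilutions, 1% DMSO; IC50 by 4-parameter fit of normalized inhibition.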
A general note: TR-FRET usually uses a lanthanide donor and a delayed reading to cut background.

Experiment [2] deals with Recombinant human Cbl-b (aa 36-427) (Homo sapiens (Human), UniProt Q13191). Put plainly: Cbl-b Biochemical Assay (TR-FRET). To be noted: read-out: TR-FRET hCbl-b IC50. The essentials:
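IC50 from 4-parameter fit of % inhibition (DMSO max, reference-inhibitor min), duplicate ten-point series. Compound preincubated with 6 nM Cbl-b, then Src-Zap70 (1-2.5 nM)/0.5 mM ATP reaction 60 min RT; EDTA quench with labelled UBE2D2-Ub and streptavidin-terbium, 60 min, HTRF at 520 nm.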

Recombinant human c-Cbl (aa 47-435), sequence (P22681 47-435): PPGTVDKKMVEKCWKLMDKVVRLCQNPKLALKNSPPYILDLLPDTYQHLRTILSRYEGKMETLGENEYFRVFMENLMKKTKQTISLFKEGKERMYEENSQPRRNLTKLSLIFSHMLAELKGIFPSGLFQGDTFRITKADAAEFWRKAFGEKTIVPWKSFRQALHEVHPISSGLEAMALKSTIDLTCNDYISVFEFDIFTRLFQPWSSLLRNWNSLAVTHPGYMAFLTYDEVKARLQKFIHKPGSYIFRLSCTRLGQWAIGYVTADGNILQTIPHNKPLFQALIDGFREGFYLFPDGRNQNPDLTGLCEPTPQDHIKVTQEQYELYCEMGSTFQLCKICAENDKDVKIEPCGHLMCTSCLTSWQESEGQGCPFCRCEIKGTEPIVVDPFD
Recombinant human Cbl-b (aa 36-427), sequence (Q13191 36-427): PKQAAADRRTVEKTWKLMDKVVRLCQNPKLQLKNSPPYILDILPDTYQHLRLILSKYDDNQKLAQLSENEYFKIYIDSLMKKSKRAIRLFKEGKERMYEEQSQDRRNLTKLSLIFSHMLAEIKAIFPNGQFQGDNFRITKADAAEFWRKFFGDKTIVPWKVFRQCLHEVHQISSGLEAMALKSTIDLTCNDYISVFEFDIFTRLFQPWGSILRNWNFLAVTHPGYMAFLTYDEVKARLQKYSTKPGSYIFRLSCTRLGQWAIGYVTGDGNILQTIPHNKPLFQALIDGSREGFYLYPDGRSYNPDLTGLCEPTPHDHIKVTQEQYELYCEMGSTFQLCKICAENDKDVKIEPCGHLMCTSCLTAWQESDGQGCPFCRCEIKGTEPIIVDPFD

As usually defined, the IC50 is the concentration needed to halve the response being measured. Turning to `Cn1cnnc1-c1cc(C#N)ccc1-c1cc(C2CC2)nc(N2Cc3ccc(CNCC4(F)CCC4)cc3C2=O)c1` [AJX-1, 4-{2-Cyclopropyl-6-[6-({[(1-fluorocyclobutyl)methyl]amino}methyl)-1-oxo-3H-isoindol-2-yl]pyridin-4-yl}-3-(4-methyl-1,2,4-triazol-3-yl)benzonitrile], the IC50 in experiment [1] and in experiment [2] was at most 200 nM each time.

`CO[C@@H](C)[C@H](C)NCc1cc(F)c2c(c1)C(=O)N(c1cc(-c3ccc(C#N)cc3-c3nncn3C)cc(C3CC3)n1)C2` [AMD-2, 4-{2-Cyclopropyl-6-[4-fluoro-6-({[(2S,3S)-3-methoxybutan-2-yl]amino}methyl)-1-oxo-3H-isoindol-2-yl]pyridin-4-yl}-3-(4-methyl-1,2,4-triazol-3-yl)benzonitrile]: the IC50 in experiment [1] and in experiment [2] was at most 200 nM each time.

For `CN(Cc1ccc2c(c1)C(=O)N(c1cc(-c3ccc(C#N)cc3-c3nncn3C)cc(C3CC3)n1)C2)CC(C)(C)O` [AMH-1, 4-[2-Cyclopropyl-6-(6-{[(2-hydroxy-2-methylpropyl)(methyl)amino]methyl}-1-oxo-3H-isoindol-2-yl)pyridin-4-yl]-3-(4-methyl-1,2,4-triazol-3-yl)benzonitrile], the IC50 in experiment [1] and in experiment [2] was at most 200 nM in each case.

On to `Cn1cnnc1-c1cc(C#N)ccc1-c1cc(C2CC2)nc(N2Cc3c(F)cc(CNC4CC4)cc3C2=O)c1` [ALR-1, 4-(2-Cyclopropyl-6-{6-[(cyclopropylamino)methyl]-4-fluoro-1-oxo-3H-isoindol-2-yl}pyridin-4-yl)-3-(4-methyl-1,2,4-triazol-3-yl)benzonitrile], for which the IC50 in experiment [1] and in experiment [2] was at most 200 nM throughout.

Turning to `Cn1cnnc1-c1cc(C#N)ccc1-c1cc(C2CC2)nc(N2Cc3ccc(CNCC4(C#N)CCC4)cc3C2=O)c1` [AKF-2, 4-{2-[6-({[(1-Cyanocyclobutyl)methyl]amino}methyl)-1-oxo-3H-isoindol-2-yl]-6-cyclopropylpyridin-4-yl}-3-(4-methyl-1,2,4-triazol-3-yl)benzonitrile], the IC50 in experiment [1] and in experiment [2] was at most 200 nM in each case.

For the compound `Cn1cnnc1-c1cc(C#N)ccc1-c1cc(C2CC2)nc(N2Cc3ccc(CN4CCC5(CC5)C4)cc3C2=O)c1` [AND-1, 4-[2-(6-{5-Azaspiro[2.4]heptan-5-ylmethyl}-1-oxo-3H-isoindol-2-yl)-6-cyclopropylpyridin-4-yl]-3-(4-methyl-1,2,4-triazol-3-yl)benzonitrile], the IC50 in experiment [1] and in experiment [2] was at most 200 nM in each case.

Turning to `CN(Cc1ccc2c(c1)C(=O)N(c1cc(-c3ccc(C#N)cc3-c3nncn3C)cc(C3CC3)n1)C2)CC1CCCC1` [AJY-1, 4-[2-(6-{1[(Cyclopentylmethyl)(methyl)amino]methyl}-1-oxo-3H-isoindol-2-yl)-6-cyclopropylpyridin-4-yl]-3-(4-methyl-1,2,4-triazol-3-yl)benzonitrile], the IC50 in experiment [1] and in experiment [2] was at most 200 nM throughout.

On to `Cn1cnnc1-c1cc(C#N)ccc1-c1cc(C2CC2)nc(N2Cc3c(F)cc(CN4CC[C@@H]5OCC[C@@H]54)cc3C2=O)c1` (single isomer, unassigned) [ANG-1], for which the IC50 in experiment [1] and in experiment [2] was at most 200 nM in each case.

Consider `Cn1cnnc1-c1cc(C#N)ccc1-c1cc(C2CC2)nc(N2Cc3c(F)cc(CN4CC[C@H]5C[C@H]54)cc3C2=O)c1` [AMX-3, 4-(2-{6-[(1R,5S)-2-Azabicyclo[3.1.0]hexan-2-ylmethyl]-4-fluoro-1-oxo-3H-isoindol-2-yl}-6-cyclopropylpyridin-4-yl)-3-(4-methyl-1,2,4-triazol-3-yl)benzonitrile], for which the IC50 in experiment [1] and in experiment [2] was at most 200 nM in each case.

In the case of `CN(Cc1ccc2c(c1)C(=O)N(c1cc(-c3ccc(Cl)cc3-c3nncn3C)cc(C3CC3)n1)C2)CC1(O)CCC1` [AMG-1, 2-(4-(4-Chloro-2-(4-methyl-4H-1,2,4-triazol-3-yl)phenyl)-6-cyclopropylpyridin-2-yl)-6-((((1-hydroxycyclobutyl)methyl)(methyl)amino)methyl)isoindolin-1-one], the IC50 in experiment [1] and in experiment [2] was at most 200 nM throughout.

For `Cn1cnnc1-c1cc(C#N)ccc1-c1cc(C2CC2)nc(N2Cc3c(F)cc(CN4C[C@@]5(C)C[C@@H]4CO5)cc3C2=O)c1` [ANV-1, 4-(2-Cyclopropyl-6-(4-fluoro-6-(((1R,4R)-1-methyl-2-oxa-5-azabicyclo[2.2.1]heptan-5-yl)methyl)-1-oxoisoindolin-2-yl)pyridin-4-yl)-3-(4-methyl-4H-1,2,4-triazol-3-yl)benzonitrile], the half-maximal inhibitory concentration (IC50) in experiment [1] and in experiment [2] was at most 200 nM throughout.

Turning to `Cn1cnnc1-c1cc(C#N)ccc1-c1cc(C2CC2)nc(N2Cc3ccc(CNC4CC4)cc3C2=O)c1` [ALQ-2, 4-(2-Cyclopropyl-6-{6-[(cyclopropylamino)methyl]-1-oxo-3H-isoindol-2-yl}pyridin-4-yl)-3-(4-methyl-1,2,4-triazol-3-yl)benzonitrile], the IC50 in experiment [1] and in experiment [2] was at most 200 nM each time.

Regarding `CC(C)OCCNCc1ccc2c(c1)C(=O)N(c1cc(-c3ccc(C#N)cc3-c3nncn3C)cc(C3CC3)n1)C2` [AIL-3, 4-[2-Cyclopropyl-6-(6-{[(2-isopropoxyethyl)amino]methyl}-1-oxo-3H-isoindol-2-yl)pyridin-4-yl]-3-(4-methyl-1,2,4-triazol-3-yl)benzonitrile], the IC50 in experiment [1] and in experiment [2] was at most 200 nM throughout.

For `Cn1cnnc1-c1cc(Cl)ccc1-c1cc(C2CC2)nc(N2Cc3ccc(CNCC4CCC4)cc3C2=O)c1` [AIV-2, 2-(4-(4-Chloro-2-(4-methyl-4H-1,2,4-triazol-3-yl)phenyl) -6-cyclopropylpyridin-2-yl)-6-(((cyclobutylmethyl)amino)methyl) isoindolin-1-one], the IC50 in experiment [1] and in experiment [2] was at most 200 nM throughout.

As to `C[C@@H](NCC1COC1)c1ccc2c(c1)C(=O)N(c1cc(-c3ccc(C#N)cc3-c3nncn3C)cc(C3CC3)n1)C2` [ANN-2, (R)-4-(2-Cyclopropyl-6-(6-(1-((oxetan-3-ylmethyl)amino)ethyl)-1-oxoisoindolin-2-yl)pyridin-4-yl)-3-(4-methyl-4H-1,2,4-triazol-3-yl)benzonitrile], the IC50 in experiment [1] and in experiment [2] was at most 200 nM each time.

As for `Cn1cnnc1-c1cc(F)ccc1-c1cc(C2CC2)nc(N2Cc3cc(Cl)c(CN[C@@H]4CCC[C@@H]4O)cc3C2=O)c1` [ANR-2, 5-Chloro-2-{6-cyclopropyl-4-[4-fluoro-2-(4-methyl-1,2,4-triazol-3-yl)phenyl]pyridin-2-yl}-6-({[(1R,2S)-2-hydroxycyclopentyl]amino}methyl)-3H-isoindol-1-one], the IC50 in experiment [1] and in experiment [2] was at most 200 nM each time.

For the compound `C[C@H](NC1COC1)c1ccc2c(c1)C(=O)N(c1cc(-c3ccc(C#N)cc3-c3nncn3C)cc(C3CC3)n1)C2` [AOB-2, (S)-4-(2-Cyclopropyl-6-(6-(1-(oxetan-3-ylamino)ethyl)-1-oxoisoindolin-2-yl)pyridin-4-yl)-3-(4-methyl-4H-1,2,4-triazol-3-yl)benzonitrile], the IC50 in experiment [1] and in experiment [2] was at most 200 nM each time.

Regarding `COC[C@@H](C)NCc1cc(F)c2c(c1)C(=O)N(c1cc(-c3ccc(C#N)cc3-c3nncn3C)cc(C3CC3)n1)C2` [AKH-1, 4-{2-Cyclopropyl-6-[4-fluoro-6-({[(2R)-1-methoxypropan-2-yl]amino}methyl)-1-oxo-3H-isoindol-2-yl]pyridin-4-yl}-3-(4-methyl-1,2,4-triazol-3-yl)benzonitrile], the IC50 in experiment [1] and in experiment [2] was at most 200 nM each time.

With `COCC1(NCc2ccc3c(c2)C(=O)N(c2cc(-c4ccc(C#N)cc4-c4nncn4C)cc(C4CC4)n2)C3)CCC1` [AJG-2, 4-(2-cyclopropyl-6-(6-(((1-(methoxymethyl)cyclobutyl)amino)methyl)-1-oxoisoindolin-2-yl)pyridin-4-yl)-3-(4-methyl-4H-1,2,4-triazol-3-yl)benzonitrile], the IC50 in experiment [1] and in experiment [2] was at most 200 nM throughout.

`Cn1cnnc1-c1cc(C#N)ccc1-c1cc(C2CC2)nc(N2Cc3c(cc(CO)c(F)c3F)C2=O)c1` [ALX-9, 4-{2-Cyclopropyl-6-[4,5-difluoro-6-(hydroxymethyl)-1-oxo-3H-isoindol-2-yl]pyridin-4-yl}-3-(4-methyl-1,2,4-triazol-3-yl)benzonitrile]: the IC50 in experiment [1] and in experiment [2] was at most 200 nM throughout.

Consider `Cn1cnnc1-c1cc(C#N)ccc1-c1cc(C2CC2)nc(N2Cc3c(F)cc(CNCC4(C)CCC4)cc3C2=O)c1` [ALO-2, 4-{2-Cyclopropyl-6-[4-fluoro-6-({[(1-methylcyclobutyl)methyl]amino}methyl)-1-oxo-3H-isoindol-2-yl]pyridin-4-yl}-3-(4-methyl-1,2,4-triazol-3-yl)benzonitrile], for which the IC50 in experiment [1] and in experiment [2] was at most 200 nM in each case.

Turning to `CN(Cc1cc(F)c2c(c1)C(=O)N(c1cc(-c3ccc(F)cc3-c3nncn3C)cc(C3CC3)n1)C2)CC1(O)CCC1` [AML-1, 2-{6-Cyclopropyl-4-[4-fluoro-2-(4-methyl-1,2,4-triazol-3-yl)phenyl]pyridin-2-yl}-4-fluoro-6-({[(1-hydroxycyclobutyl)methyl](methyl)amino}methyl)-3H-isoindol-1-one], the IC50 in experiment [1] and in experiment [2] was at most 200 nM each time.

These data come from patent US12325697B2 (Nimbus Clio, Inc., priority 2021, dated 2025).
